The source made the active and inactive calls. The calls are words filed in the database; no cut-off is given here.
How the values were obtained:
[1] = biological target: Transmembrane protease serine 4 (Homo sapiens) (UniProt Q9NRS4); assay: Inhibition of TMPRSS4 serine protease domain (Val205 to Leu437 residues) (unknown origin) expressed in Escherichia coli BL21 (DE3) at 1 mM using Boc-Gln-Ala-Arg-7-amido-4-methylcoumarin hydrochloride substrate measured at 5 mins intervals
[2] = biological target: Transmembrane protease serine 4 (Homo sapiens) (UniProt Q9NRS4); assay: Inhibition of TMPRSS4 serine protease domain (Val205 to Leu437 residues) (unknown origin) expressed in Escherichia coli BL21 (DE3) at 30 uM using Z-Phe-Arg7-amido-4-methylcoumarin hydrochloride substrate measured at 5 mins interval for 150 mins by fluorescence based assay relative to control
[3] = biological target: Transmembrane protease serine 4 (Homo sapiens) (UniProt Q9NRS4); assay: Inhibition of TMPRSS4 serine protease domain (Val205 to Leu437 residues) (unknown origin) expressed in Escherichia coli BL21 (DE3) at 10 uM using Z-Phe-Arg7-amido-4-methylcoumarin hydrochloride substrate measured at 5 mins interval for 150 mins by fluorescence based assay relative to control
[4] = biological target: Transmembrane protease serine 4 (Homo sapiens) (UniProt Q9NRS4); assay: Inhibition of TMPRSS4 serine protease domain (Val205 to Leu437 residues) (unknown origin) expressed in Escherichia coli BL21 (DE3) at 100 uM using Z-Phe-Arg7-amido-4-methylcoumarin hydrochloride substrate measured at 5 mins interval for 150 mins by fluorescence based assay relative to control

Sequence of Transmembrane protease serine 4 (Homo sapiens) (Q9NRS4 whole entry, the tested form may be a part): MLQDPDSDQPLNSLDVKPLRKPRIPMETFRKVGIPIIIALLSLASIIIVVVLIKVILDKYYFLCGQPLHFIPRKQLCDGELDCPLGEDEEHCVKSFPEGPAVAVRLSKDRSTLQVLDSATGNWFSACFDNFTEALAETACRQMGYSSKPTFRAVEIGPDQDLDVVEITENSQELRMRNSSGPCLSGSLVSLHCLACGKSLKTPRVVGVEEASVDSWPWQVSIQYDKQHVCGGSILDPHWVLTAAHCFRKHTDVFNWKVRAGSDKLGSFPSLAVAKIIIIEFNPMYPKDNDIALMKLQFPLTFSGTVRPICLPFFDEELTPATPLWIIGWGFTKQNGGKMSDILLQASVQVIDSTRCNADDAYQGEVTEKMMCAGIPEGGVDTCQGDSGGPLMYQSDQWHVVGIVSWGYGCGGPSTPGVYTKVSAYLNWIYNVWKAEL

Row | inhibition [2] [%] | inhibition [3] [%] | inhibition [4] [%] | SMILES | inhibition [1]
1 | – | – | – | NCCc1ccc(S(=O)(=O)F)cc1 | Active
2 | 77 | – | – | Cc1c(NC(=O)c2cc(Cl)ccc2O)cccc1C(F)(F)F | –
3 | 31 | 5 | – | O=C(Nc1cc(C(F)(F)F)cc(C(F)(F)F)c1Cl)c1cc(-c2ccc(F)cc2F)ccc1O | –
4 | 46 | 30 | 98 | O=C(Nc1ccc(C(F)(F)F)c(Br)c1)c1cc(Cl)ccc1O | –
